Where a name gives a salt, the structure may show the parent alone.
biological target: T1, Human CARM1 (PRMT4) (Homo sapiens, UniProt Q86X55); test: CARM1 biochemical assay (3H-SAM Flashplate, peptide substrate)
T1 construct: Flag-CARM1-His was eluted with 200 ug/ml FLAG peptide in buffer A; made in house; host or cells: HEK 293F cells (BacMam virus, pFastBacMam)
T1 sequence (Q86X55 with tags, fused parts or gaps isoform Q86X55-1): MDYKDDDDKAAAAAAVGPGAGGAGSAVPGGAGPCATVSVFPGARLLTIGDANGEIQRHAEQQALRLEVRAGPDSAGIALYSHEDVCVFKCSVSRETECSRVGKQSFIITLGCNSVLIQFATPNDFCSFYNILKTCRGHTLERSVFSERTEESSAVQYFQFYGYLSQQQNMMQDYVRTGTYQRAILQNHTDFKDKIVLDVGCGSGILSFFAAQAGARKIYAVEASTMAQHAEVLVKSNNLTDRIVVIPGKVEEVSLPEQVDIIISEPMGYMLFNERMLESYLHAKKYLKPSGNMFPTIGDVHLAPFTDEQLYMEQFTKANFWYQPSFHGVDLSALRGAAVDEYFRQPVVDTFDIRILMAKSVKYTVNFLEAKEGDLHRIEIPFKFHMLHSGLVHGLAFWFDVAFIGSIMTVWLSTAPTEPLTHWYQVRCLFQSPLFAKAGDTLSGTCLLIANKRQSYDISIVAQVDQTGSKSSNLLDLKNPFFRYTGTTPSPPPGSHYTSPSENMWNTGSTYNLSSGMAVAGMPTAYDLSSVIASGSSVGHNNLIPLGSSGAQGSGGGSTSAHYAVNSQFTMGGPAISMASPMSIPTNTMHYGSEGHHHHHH
Description: General Materials. S-adenosylmethionine (SAM), S-adenosylhomocysteine (SAH), bicine, Tween20, dimethylsulfoxide (DMSO), bovine skin gelatin (BSG), sodium butyrate and Tris(2-carboxyethyl)phosphine hydrochloride solution (TCEP) were purchased from Sigma-Aldrich at the highest level of purity possible. ^3H-SAM was purchase from American Radiolabeled Chemicals with a specific activity of 80 Ci/mmol. 384-well streptavidin Flashplates were purchased from PerkinElmer.
Substrates. Peptide representative of human histone H3 residues 16-30 was synthesized with an N-terminal linker-affinity tag motif and a C-terminal amide cap by 21st Century Biochemicals.
Protein Expression. Recombinant baculovirus were generated according to Bac-to-Bac kit instructions (Life Technologies). […] Infections were carried out at 37° C. for 48 hours, harvested by centrifugation, and stored at −80° C. for purification.
Protein Purification. […] Column was washed with 500 mM NaCl in buffer A and Flag-CARM1-His was eluted with 200 ug/ml FLAG peptide in buffer A. Pooled fractions were dialyzed in 20 mM Tris, 150 mM NaCl, 5% glycerol and 1 mM DTT, pH 7.8.
General Procedure for CARM1 Enzyme Assays on Peptide Substrates. The assays were all performed in a buffer consisting of 20 mM Bicine (pH=7.6), 1 mM TCEP, 0.005% BSG, and 0.002% Tween 20, prepared on the day of use. […] DMSO (1 ul) was added to Columns 11, 12, 23, 24, rows A-H for the maximum signal control and 1 ul of SAH, a known product and inhibitor of CARM1, was added to columns 11, 12, 23, 24, rows I-P for the minimum signal control. A cocktail (40 ul) containing the CARM1 enzyme was added by Multidrop Combi (Thermo-Fisher). The compounds were allowed to incubate with CARM1 for 30 min at room temperature, then a cocktail (10 ul) containing ^3H-SAM and peptide was added to initiate the reaction (final volume=51 ul). […] The assays were stopped by the addition of non-radiolabeled SAM (10 ul) to a final concentration of 300 uM, which dilutes the ^3H-SAM to a level where its incorporation into the peptide substrate is no longer detectable. 50 ul of the reaction in the 384-well polypropylene plate was then transferred to a 384-well Flashplate and the biotinylated peptides were allowed to bind to the streptavidin surface for at least 1 hour before being washed once with 0.1% Tween20 in a Biotek ELx405 plate washer. The plates were then read in a PerkinElmer TopCount plate reader to measure the quantity of ^3H-labeled peptide bound to the Flashplate surface, measured as disintegrations per minute (dpm) or alternatively, referred to as counts per minute (cpm).
Where dpm=disintegrations per minute, cmpd=signal in assay well, and min and max are the respective minimum and maximum signal controls.
Where top and bottom are the normally allowed to float, but may be fixed at 100 or 0 respectively in a 3-parameter fit. The Hill Coefficient normally allowed to float but may also be fixed at 1 in a 3-parameter fit. Y is the % inhibition and X is the compound concentration.

| Compound | IC50 [µM] |
| --- | --- |
| CNCCN(C)Cc1cn(C2CC2)nc1-c1ccc(F)cc1 [Compound 13] | 1.01 to 3 |
| CNCCN(C)Cc1cnn(C2CC2)c1-c1ccc(F)cc1 [Compound 14] | 0.101 to 1 |
| CNCCN(C)Cc1cn(C(C)C)nc1-c1ccc(F)cc1 [Compound 15] | 3.01 to 10 |
| CNCCN(C)Cc1cnn(C(C)C)c1-c1ccc(F)cc1 [Compound 16] | 3.01 to 10 |
| CNCCN(C)Cc1cn[nH]c1-c1ccc(C#N)cc1 [Compound 17] | 1.01 to 3 |
| CNCCN(C)Cc1cn[nH]c1-c1cc(F)cc(F)c1 [Compound 18] | 0.101 to 1 |
| CCCc1ccc(-c2n[nH]cc2CN(C)CCNC)cc1 [Compound 20] | 0.101 to 1 |
| CNCCN(C)Cc1c[nH]nc1-c1cccc([N+](=O)[O-])c1 [Compound 21] | 1.01 to 3 |
| CNCCN(C)Cc1c[nH]nc1-c1cccc(C#N)c1 [Compound 22] | 1.01 to 3 |
| CNCCN(C)Cc1c[nH]nc1-c1ccccc1OC [Compound 23] | 1.01 to 3 |
| CNCCN(C)Cc1c[nH]nc1-c1cccc(OC)c1 [Compound 24] | 1.01 to 3 |
| CNCCN(C)Cc1c[nH]nc1-c1ccc(OC)cc1 [Compound 25] | 1.01 to 3 |
| CNCCN(C)Cc1c[nH]nc1-c1cccc(O)c1 [Compound 26] | 1.01 to 3 |
| CNCCN(C)Cc1c[nH]nc1-c1ccc(O)cc1 [Compound 27] | 1.01 to 3 |
| CNCCN(C)Cc1c[nH]nc1-c1ccc(CO)cc1 [Compound 28] | 0.101 to 1 |
| CNCCN(C)Cc1c[nH]nc1-c1ccc(C)cc1C [Compound 29] | 3.01 to 10 |
| CNCCN(C)Cc1cn(CCCC(O)CO)nc1-c1ccc(F)cc1 (centres unmarked) [Compound 30] | 3.01 to 10 |
| CNCCN(C)Cc1cnn(CCCC(O)CO)c1-c1ccc(F)cc1 (centres unmarked) [Compound 31] | 1.01 to 3 |
| CNCCN(C)Cc1c[nH]nc1-c1ccc(N)cc1 [Compound 33] | 1.01 to 3 |
| CNCCN(C)Cc1c[nH]nc1-c1ccc(Oc2ccccc2)cc1 [Compound 37] | < 0.1 |
| CNCCN(C)Cc1c[nH]nc1-c1ccccc1C(F)(F)F [Compound 38] | > 10 |
| CNCCN(C)Cc1c[nH]nc1-c1ccccc1OC(F)(F)F [Compound 40] | > 10 |

| Compound | IC50 [µM] |
| --- | --- |
| CCNC(=O)c1cccc(-c2n[nH]cc2CN(C)CCNC)c1 [Compound 43] | 3.01 to 10 |
| CCn1cc(CN(C)CCNC)c(-c2ccc(OC(C)C)cc2)n1 [Compound 213] | 0.101 to 1 |
| CNCCN(C)Cc1cn(C2CCCC2)nc1-c1ccc(OC(C)C)cc1 [Compound 214] | 0.101 to 1 |
| CNCCN(C)Cc1cn(C2CCOC2)nc1-c1ccc(OC(C)C)cc1 (centres unmarked) [Compound 215] | 0.101 to 1 |
| CNCCN(C)Cc1cnn(C2CCOC2)c1-c1ccc(OC(C)C)cc1 (centres unmarked) [Compound 216] | 0.101 to 1 |
| CNCCN(C)Cc1cn(Cc2ccccc2)nc1-c1ccc(OC(C)C)cc1 [Compound 217] | 0.101 to 1 |
| C=CCn1cc(CN(C)CCNC)c(-c2ccc(OC(C)C)cc2)n1 [Compound 218] | 0.101 to 1 |
| C=CCn1ncc(CN(C)CCNC)c1-c1ccc(OC(C)C)cc1 [Compound 219] | 0.101 to 1 |
| CNCCN(C)Cc1cn(C)nc1-c1ccc(OC(C)C)cc1 [Compound 243, N1-((3-(4-isopropoxyphenyl)-1-methyl-1H-pyrazol-4-yl)methyl)-N1,N2-dimethylethane-1,2-diamine] | 0.101 to 1 |
| CNCCN(C)Cc1cn(Cc2cccnc2)nc1-c1ccc(OC(C)C)cc1 [Compound 246] | 1.01 to 3 |
| CNCCN(C)Cc1cn(Cc2ccccn2)nc1-c1ccc(OC(C)C)cc1 [Compound 247] | 1.01 to 3 |
| CNCCN(C)Cc1cn(CC(=O)OC)nc1-c1ccc(OC(C)C)cc1 [Compound 248] | 3.01 to 10 |
| CNCCN(C)Cc1cnn(CC(=O)OC)c1-c1ccc(OC(C)C)cc1 [Compound 249] | 3.01 to 10 |
| CNCCN(C)Cc1cn(CC(=O)O)nc1-c1ccc(OC(C)C)cc1 [Compound 250] | > 10 |
| CNCCN(C)Cc1cn(CC(N)=O)nc1-c1ccc(OC(C)C)cc1 [Compound 251] | 1.01 to 3 |
| CCn1ncc(CN(C)CCNC)c1-c1ccc(OC(C)C)cc1 [Compound 252] | 0.101 to 1 |
| CNCCN(C)Cc1cn(CCOC)nc1-c1ccc(OC(C)C)cc1 [Compound 253, N1-((3-(4-isopropoxyphenyl)-1-(2-methoxyethyl)-1H-pyrazol-4-yl)methyl)-N1,N2-dimethylethane-1,2-diamine hydrochloride] | 1.01 to 3 |
| CNCCN(C)Cc1cn(C2CCC2)nc1-c1ccc(OC(C)C)cc1 [Compound 254, N1-((1-cyclobutyl-3-(4-isopropoxyphenyl)-1H-pyrazol-4-yl)methyl)-N1,N2-dimethylethane-1,2-diamine hydrochloride] | 0.101 to 1 |
| CNCCN(C)Cc1cnn(C2CCCC2)c1-c1ccc(OC(C)C)cc1 [Compound 255] | 1.01 to 3 |
| CNCCN(C)Cc1cn(C2CCCCC2)nc1-c1ccc(OC(C)C)cc1 [Compound 256] | 0.101 to 1 |
| C=C(C)C(=O)Nc1cccc(-c2[nH]ncc2CN(C)CCNC)c1 [Compound 257] | > 10 |
| C=CC(=O)Nc1cccc(-c2[nH]ncc2CN(C)CCNC)c1 [Compound 258] | 1.01 to 3 |

— patent publication US9346761B2, “Arginine methyltransferase inhibitors and uses thereof” (Epizyme, Inc., priority 2013, dated 2016)
